A short description of data set [1]: Peptide stability in mouse plasma. The data set is classed as in vitro ADME. The conditions noted are these: 100 μg/mL, 37° C.; FIG. 3, 5, 14. Here is the method:
(§1) The stability of peptides was also tested in mouse and human plasma. Briefly, a certain amount of peptides and eucatropine powder (positive control) was accurately weighed. Test compounds were dissolved in 50% methanol-water solution and diluted to 20 mg/mL, and eucatropine was dissolved in dimethylsulfoxide (DMSO) and diluted to 10 mM, as a stock solution. Eucatropine stock solution was diluted to 0.2 mM with DMSO as a working solution. A stop reagent was prepared containing 200 ng/mL midazolam and tolbutamide in acetonitrile. A volume of 300 μL of stop solution was added to each well of a 96-well deep-well plate placed on ice beforehand.
For the stability studies, peptides and eucatropine were spiked into plasma respectively, mixed well, and then 100 μL of each mixture solution was transferred into the pre-cooled stop reagent as 0 time point sample. The remaining mixtures were incubated in a 37° C. water bath with shaking at 100 rpm (n=2). The final incubation concentration was […] for eucatropine and 100 μg/mL for all test compounds.
(§2) At desired time points, 100 μL of incubation mixture was transferred to the stop reagent to precipitate proteins. Samples were vortexed and centrifuged at RCF 5000×g for 10 minutes, and supernatant was transferred to a test plate. The samples were analyzed by LC-MS/MS.
(§3) Slope was calculated by plotting the natural logarithm of the percentage of remaining amount of test compounds and time, and T1/2 was calculated in accordance with the following formula.
For stability in mouse plasma, the incubation time was 0, 5, 15, 30 and 60 min for Peptide 1 and eucatropine; 0, 15, 30, 60, 120, 240 and 480 min for Peptide 12, Peptide 16 and Peptide 29.
In another stability study in mouse plasma, the incubation time was 0, 30, 60 and 120 min for Peptide 2 and eucatropine; 0, 30, 60, 120, 240 and 960 min for Peptide 52 and Peptide 54.
as §1, with “tested in rat, mouse and” for “tested in mouse and”
(§4) For the stability studies, peptides and eucatropine were spiked into plasma respectively, mixed well, and then 100 μL of each mixture solution was transferred into the pre-cooled stop reagent as 0 time point sample. The remaining mixtures were incubated in a 37° C. water bath with shaking at 100 rpm (n=2). The final incubation concentration was 1 μM for eucatropine and 100 μg/mL for all test compounds.
For stability in mouse plasma, the incubation time was 0, 15, 30, 60 and 120 min for Peptide 1 and eucatropine; 0, 15, 30, 60, 120, and 240 min for Peptide 31.

A short description of data set [2]: Peptide stability in rat plasma. The data set is classed as in vitro ADME. The note with it: 100 μg/mL, 37° C.; FIG. 12, 13. Here is the method:
as §1, with “tested in rat, mouse and” for “tested in mouse and”
as §4, §2, §3
For stability in rat plasma, the incubation time was 0, 15, 30, 60 and 120 min for Peptide 1 and eucatropine, and 0, 15, 30, 60, 120, and 240 min for Peptide 12, Peptide 16, Peptide 29 and Peptide 31.
In another stability study in rat plasma, the incubation time was 0, 30, 60 120 and 240 min for Peptide 2, Peptide 52, Peptide 64 and eucatropine.

Data set [3] in a line: Pharmacokinetics in rat, intravenous bolus. The class given is in vivo. The conditions noted are these: male, Sprague-Dawley, plasma, RAT (IV), 25 mg/kg; for AUC(0-t): read-out: AUC(0-t); for AUC(0-inf): read-out: AUC(0-∞); for Cmax: read-out: Cmax. How it is done: After 7 days acclimation, male Sprague-Dawley (SD) rats weighing 210-250 g, or male C57BL/6 mice, weighing 19-24 g, in good health were used in the study. Peptide 1, Peptide 12 and Peptide 16 were dissolved in sterile normal saline and then they were injected via subcutaneous (sc) bolus or intravenous (iv) bolus at the dose level of 25 mg/kg. Three animals in each group were used for blood collection at the time point of 5 min, 15 min, 30 min, 1 h, 2 h, 4 h, 6 h, 8 h and 24 h post-dose. Blood samples (approximately 400 μL) were collected and placed into tubes containing EDTA-K2 and centrifuged at 8000 rpm for 6 minutes at 4° C. to separate plasma from the samples. The resulting plasma was stored frozen at −80° C. until being analyzed. Plasma concentrations of peptides were determined using tandem mass spectrometry (LC-MS/MS) analysis. A non-compartmental module of WinNonlin® Professional 5.2 (Pharsight; St. Louis Mo.), was used to calculate PK parameters. The abbreviation AUC(0-t) represents area under the curve from the time of dosing to the time of the last observation, the AUC(0-∞) represents area under the curve from the time of dosing to infinity, and the Cmax represents maximum concentration detected.

Data set [4] is described as follows: Pharmacokinetics in SD rats after single subcutaneous dose (Example X). The class given is in vivo, rat. The note with it: plasma, sc, male Sprague-Dawley rat, subcutaneous, 25 mg/kg; for AUC(0-t): read-out: AUC(0-t); for AUC(0-inf): read-out: AUC(0-∞); for Cmax: read-out: Cmax. How it is done: After 7 days acclimation, a total of 15 male Sprague-Dawley (SD) rats (body weight: 230 to 270 g) in good health from Sino-British SIPPR/BK Lab Animal Ltd, Shanghai, were used in the study. All peptides, Peptide 1, Peptide 12, Peptide 16, Peptide 29 or Peptide 31, were dissolved in sterile normal saline respectively to yield the desired final concentrations and were administered via single subcutaneous (sc) dose.
Three animals in each group were used for blood collection at the time point of 5 min, 15 min, 30 min, 1 h, 2 h, 4 h, 6 h, 8 h and 24 h post-dose. Blood samples (approximately 400 μL) were collected and placed into tubes containing EDTA-K2 (dipotassium ethylene diamine tetraacetic acid) and centrifuged at 8000 rpm for 6 minutes at 4° C. to separate plasma from the samples. The resulting plasma was stored frozen at −80° C. until being analyzed.
Plasma concentrations of peptides were determined using tandem mass spectrometry (LC-MS/MS) analysis. A non-compartmental module of WinNonlin® Professional 5.2 (Pharsight; St. Louis Mo.) was used to calculate PK parameters. AUC(0-t) represents area under the curve from the time of dosing to the time of the last observation, the AUC(0-∞) represents area under the curve from the time of dosing to infinity, and the Cmax represents maximum concentration detected.

The values that follow come from patent US9388215B2, “Compositions and methods of using islet neogenesis peptides and analogs thereof” (SHENZHEN HIGHTIDE BIOPHARMACEUTICAL, LTD., priority 2013, dated 2016).

“Ac-IGLHDPSHGTLPNGS-OH [Peptide 16, Ac-IGLHDPSHGTLPNGS-OH]”: in data set [1], the “stability in mouse plasma” value is “exhibited good stability in mouse plasma and were more stable than INGAP-PP”. In addition, the “stability in rat plasma” value in data set [2] was “exhibited good stability in rat plasma and were more stable than INGAP-PP”. Moreover, in data set [3], the AUC(0-t) is 12200 ng·h/mL, the AUC(0-inf) was determined as 12200 ng·h/mL and the Cmax amounted to 45200 ng/mL. Besides, in data set [4], the AUC(0-t) stood at 11200 ± 1880 ng·h/mL, the AUC(0-inf) is 11200 ± 1880 ng·h/mL and the Cmax was found to be 22100 ± 5870 ng/mL.
For “Ac-IGLHDPSHGTLPNGS-NH2 [Peptide 31, Ac-IGLHDPSHGTLPNGS-NH2]”, in data set [1], the “stability in mouse plasma” value was “exhibited good stability in mouse plasma and was more stable than INGAP-PP”. Further, in data set [2], the “stability in rat plasma” value was “exhibited good stability in rat plasma and were more stable than INGAP-PP”. In data set [4], the AUC(0-t) was determined as 15600 ± 1530 ng·h/mL, the AUC(0-inf) worked out at 15600 ± 1530 ng·h/mL and the Cmax came to 26000 ± 3100 ng/mL.
Consider “H-IGLHDPSHGTLPNGS-OH [Peptide 1, H-IGLHDPSHGTLPNGS-OH, reference compound]”, for which, in data set [3], the AUC(0-t) was 21.9 ng·h/mL, the AUC(0-inf) amounted to 27.1 ng·h/mL and the Cmax came to 48.7 ng/mL. Also, in data set [4], the AUC(0-t) came to 294 ± 125 ng·h/mL, the AUC(0-inf) came to 298 ± 122 ng·h/mL and the Cmax is 1190 ± 610 ng/mL.

The term AUC(0-t) denotes the area under the concentration-time curve up to a stated or last time point. The Cmax is the maximum level reached in the sampled fluid or tissue.
